Usually melting point stands for the temperature, or range, at which the solid turns liquid. Molecule `O=c1n(Cl)c(=O)n(Cl)c(=O)n1Cl` returned a melting point of 249 °C. In the case of `Cc1nc(-c2ccc(CBr)cc2)cs1`, the melting point fell in the range of 73 to 76 °C. To `CCCC(O)C1(C)CCC(C(=O)O)C(C)(C)O1` (stereo not drawn) belongs 179 °C; to `O=C1OC2(CCCCC2)OC1c1ccccc1` (stereo not drawn), 87 °C; to `CC1=C(C(=O)OCc2ccccc2)C(c2cccc([N+](=O)[O-])c2)NC(=S)N1` (stereo not drawn), 176 °C.

`COc1ccc2ccccc2c1C` registered a melting point of 126 °C. `CCNCC(O)c1cccc(O)c1` (stereo not drawn) gave a melting point of 148 °C. `CC1=C(C(=O)OC(C)C)C(c2ccc3c(c2)OCO3)NC(=O)N1` (stereo not drawn) registered a melting point of 186 °C. Then `O=C(NCSCc1ccccc1)c1ccccc1`, with 79 to 80 °C; and `FC(F)(F)C(Cl)(Cl)C(Cl)(Cl)C(F)(F)F`, with 83.5 °C; and `CC1CC(N(C)C)C(O)C(OC2C(C)CC(C)C(=O)C=CC(C)C(C(C)O)OC(=O)C2C)O1` (stereo not drawn), with 157 °C. Regarding `CSc1nc(N)nc(-c2cccs2)n1`, the melting point lay within 176 to 177 °C. `CC(=O)Nc1cc(F)ccc1C(=O)O` displayed a melting point of 212 to 216 °C.

As to `C=CC1CC2C=CC1C2` (stereo not drawn), the melting point was -80 °C. Then `O=[N+]([O-])c1ccc(S(=O)(=O)Cl)cc1Cl`, with 38 °C; and `O=C(OCC(COC(=O)c1cccnc1)(COC(=O)c1cccnc1)COC(=O)c1cccnc1)c1cccnc1`, with 162 °C; and `CC1OC(O)C(O)C(O)C1O` (stereo not drawn), with 144 to 145 °C. The molecule `O=Cc1ccccc1Cn1cncn1` displayed a melting point of 59 °C. Take `CC(=O)OCC(=O)c1ccccc1`: the melting point came to 49 °C.

The molecule `O=S(=O)(CCl)c1ccccc1` had a melting point of 54 °C. Then `O=C(O)C1CCOCC1`, with 87 to 89 °C.

In turn, `Fc1ccc2nc(Cl)sc2c1` displayed a melting point of 91 °C. `FC(=C(F)C(F)(F)F)C(F)(F)F` showed a melting point of -129 °C. With `N#Cc1ccccc1N1CCCCC1`, the melting point lay within 45 to 48 °C.

Molecule `COc1ccc(C(=O)C2=NOC3C(=O)N(c4cc(Cl)ccc4Cl)C(=O)C23)cc1` (stereo not drawn) returned a melting point of 147 °C.

Turning to `CCCCC(CC)COC(=O)CCCCCCCC(=O)OCC(CC)CCCC` (stereo not drawn), the melting point was -78 °C. On to `CCN(CC)CCCN(c1ccccc1)C1Cc2ccccc2C1`, for which the melting point stood at 120 °C.

The molecule `O=[N+]([O-])c1cc(Cl)ccc1S(=O)(=O)c1ccccc1` showed a melting point of 115 to 117 °C. Then `COc1ccc(-c2cc3nc(C)cc(C(F)(F)F)n3n2)cc1`, with 167 °C. Then `CC(CCl)OP(=O)(OC(C)CCl)OC(C)CCl` (stereo not drawn), with -40 °C. For `O=S1(=O)CCN(CN2CCS(=O)(=O)NC2)CN1`, the melting point turned out to be 154 °C. Then `CC1(C)C2CCC1(C)C(O)C2` (stereo not drawn), with 214 °C. To `CC12CCC(O)(CC1)CC2=O` belongs 55 to 56 °C; to `Nc1ccccc1C(=NO)c1ccccc1`, 157 to 158 °C; to `O=C(Cl)OCC1c2ccccc2-c2ccccc21`, 63 °C. In turn, `C#CCN1C(=O)COc2cc(F)c(N3C(=O)C4=C(CCCC4)C3=O)cc21` returned a melting point of 203 °C. `O=C(NC(Cc1ccccc1)c1ccccc1)c1cccnc1` (stereo not drawn): the melting point is 159 °C. To `S=c1sc2ccccc2n1CSc1nc2ccccc2s1` belongs 211 °C. Consider `COC(=O)C1=C(C)NC(C)=C(C(=O)OC)C1c1ccc(OC)cc1`, for which the melting point was in the range of 173 to 177 °C. To `Cc1cc(N)ccc1F` belongs 35 to 37 °C; to `COC(=O)c1sc2c(c1N)CSc1ccc(Cl)cc1-2`, 120 °C. `CN(C)C(=O)SCCCCOc1ccccc1`: the melting point amounted to 40.5 °C. To `COc1ccc(CN)c(F)c1F` belongs 34 °C; to `Cc1c(Cl)cc([N+](=O)[O-])cc1Cl`, 63 to 64 °C; to `Cc1cc(C(=O)CCl)c(C)n1-c1ccc(F)cc1`, 80 to 82 °C. `CCOC(=O)Cn1nc(-c2ccccc2)c2ccccc2c1=O`: the melting point came to 224 °C. `O=[N+]([O-])c1ccc(OS(=O)(=O)C(F)(F)F)cc1` had a melting point of 52 °C.

As for `CC(=C(C#N)C#N)c1ccc(Cl)cc1`, the melting point amounted to 93 °C.

`N#CC(CCN1CCC(C(N)=O)(N2CCCCC2)CC1)(c1ccccc1)c1ccccc1` displayed a melting point of 150 °C. Then `CC(C)(C)OC(=O)N[C@@H](Cc1cccc(C#N)c1)C(=O)O`, with 124 °C. Then `Cc1cncc(N2CCC(C(=O)O)CC2)n1`, with 151 to 152 °C; and `CCOC(=S)SSC(=S)OCC`, with 30 °C; and `Cc1ccc(-c2ccc(S(=O)(=O)Cl)cc2)cc1`, with 107 to 108 °C.

With `NNc1ccc(C(F)(F)F)cc1`, the melting point stood at 62 °C.

Turning to `O=C(NC(=O)c1c(F)cccc1F)Nc1ccc(Cl)cc1`, the melting point was found to be 239 °C. Then `O/N=C(/CC(NO)c1ccccc1)c1ccccc1` (stereo not drawn), with 141 °C; and `O=CC(O)C1OC(=O)C(O)C1O` (stereo not drawn), with 178 °C; and `O=C1NC(=O)C(=Cc2ccc(-c3ccccc3)o2)C(=O)N1`, with 270 °C. In the case of `Clc1ccc(NC2=NCCN2)cc1`, the melting point is 147 to 148 °C. To `O=C(Cc1cc(CC(=O)c2ccccc2)c([N+](=O)[O-])cc1[N+](=O)[O-])c1ccccc1` belongs 170 to 171 °C; to `Nc1ccnc(Cl)c1`, 93 °C. `N#CC1(c2ccc(F)cc2Cl)CCCC1` showed a melting point of 49 to 52 °C. Molecule `O=Cc1cccc(-c2cncnc2)c1` registered a melting point of 148 to 149 °C. Then `Cc1cc(C)c(C)c(I)c1C`, with 79 °C. Then `O=[N+]([O-])c1ccc2[nH]ccc2c1`, with 205 to 207 °C; and `Cc1cccc(C)c1NC1=NCCCS1`, with 140 °C; and `CCCCCCCCCCC(Br)C(=O)O` (stereo not drawn), with 32 °C. `CC(C)(C)N(NC(=O)c1ccccc1)C(=O)c1ccccc1C(F)(F)F` returned a melting point of 172 °C. As to `CC(C)(C)OC(=O)NC(=O)OC(C)(C)C`, the melting point lay in the range of 114 to 117 °C. `O=C(C(C(=O)N1CCOCC1)c1ccccc1)N1CCOCC1`: the melting point was 187 °C.

In turn, `CC(C)(O)C#CC#CC(C)(C)O` came in with a melting point of 132 to 134 °C.

In the case of `COC(=O)C(OC)C(=O)OC`, the melting point lay within 11 to 12 °C. The molecule `O=C(Cl)c1cnccn1` gave a melting point of 150 °C. Molecule `CCC(C)c1ccccc1OC(=O)NC` (stereo not drawn) had a melting point of 31.5 °C. Then `O=S(=O)(Cl)c1cc(F)c(Br)cc1F`, with 35 °C; and `Cn1nc(CC#N)c2c(N)ncnc21`, with 135 to 138 °C; and `CCOC(=O)c1ccc(N2C(=O)CCC2=O)cc1`, with 158 to 160 °C. `O=C1CC(c2ccccc2)Oc2ccc(O)cc21` (stereo not drawn) came in with a melting point of 220 to 222 °C.

`O=C(Cl)c1ccc2c(c1)OCO2` displayed a melting point of 80 to 81 °C. Then `O=C(CF)c1ccccc1`, with 29 °C. The molecule `Cc1ccc(S(=O)(=O)c2ncsc2SCc2ccc(Cl)cc2)cc1` came in with a melting point of 151 to 153 °C. To `CCc1ccc(O)c(OC)c1` belongs 15 °C. Then `CCCCCCCCCCCCCCCC(=O)OCCO`, with 51 °C.

The molecule `Cc1onc(-c2c(Cl)cccc2Cl)c1C(=O)Cl` returned a melting point of 92 to 95 °C. Then `O=C1c2ccccc2C1Cl` (stereo not drawn), with 67 °C; and `O=C(O)c1cnc2n(c1=O)CCS2`, with 237 to 238 °C. Regarding `CCC(Cl)C(C)Cl` (stereo not drawn), the melting point is -77.3 °C. To `Cc1cccc(C)c1NC(=O)C(C)N` (stereo not drawn) belongs 256 °C; to `CC(=O)c1ccc(-c2ccccc2OC(F)(F)F)o1`, 40 to 47 °C; to `Oc1c(Br)ccc2cccnc12`, 140 °C. `CC(=O)c1cc(-c2c(Cl)cccc2Cl)no1`: the melting point is 117 to 119 °C. Turning to `CCCCCCN1CCCC1=O`, the melting point was 4 °C.

`O=C1Cc2cccc(F)c21`: the melting point is 41 °C. Then `O=C(O)CS(=O)(=O)O`, with 85 °C; and `Nc1ccc(Cl)cc1I`, with 40 to 42 °C; and `N#Cc1c2ncccc2c(=O)n2c1sc1ccccc12`, with 275 °C. Molecule `Nc1ccc2c(c1)S(=O)(=O)C=C2` had a melting point of 150 °C. To `NCc1cc(=O)[nH]o1` belongs 175 °C. Then `CCc1oc2ccccc2c1C(=O)c1cc(I)c(O)c(I)c1`, with 167 °C; and `CS(=O)(=O)OCCC(=O)N1CCN(C(=O)CCOS(C)(=O)=O)CC1`, with 175 °C. Molecule `NCC(c1ccccc1)c1ccccc1` showed a melting point of 43 to 49 °C.

On to `CC(CC/C(=N/O)C(C)C)CC(=O)O` (stereo not drawn), for which the melting point is 186 to 187 °C.

The molecule `O=c1c(Cl)c(Cl)cnn1Cc1c(F)cccc1Cl` displayed a melting point of 137 to 138 °C.

With `COCCc1ccc(O)cc1`, the melting point came to 44 °C. `O=c1c(C=Cc2nc3ccccc3[nH]2)coc2ccccc12` came in with a melting point of 260 °C.

`COC(=O)c1c(Cl)cccc1Cl` showed a melting point of 28 °C. Then `COc1ccc(C(=O)Cl)cc1OC`, with 71 °C.

For `COc1ccc2c(c1)N(CC(C)CN1CCC(O)CC1)c1ccccc1S2` (stereo not drawn), the melting point turned out to be 138 °C.

The molecule `O=Cc1ccc(C(F)(F)F)nc1` had a melting point of 53 to 55 °C.

Molecule `COc1ccc(C(=O)O)cc1I` registered a melting point of 240 °C.

As for `C[Si]1(C)Oc2ccc3ccccc3c2-c2c(ccc3ccccc23)O[Si](C)(C)O1`, the melting point is 173 °C. As to `Oc1ccccc1C1Nn2c(COc3ccccc3)nnc2S1` (stereo not drawn), the melting point amounted to 217 °C. To `Cn1ccc2ccc(C(=O)O)cc21` belongs 197 °C.

Values taken from a melting point compilation (Tetko et al.).
